PubChem BioAssay AID248 (DTP/NCI, 2004)
Toxic doses and inconclusive results are not listed. Cut-off read from the data, not from the text of the source: active = T/C of 150% or more; inactive = T/C below 125%.

System: L1210 leukemia ip in BDF1 mice, survival T/C
Assay: NCI In Vivo Anticancer Drug Screen. Data for tumor model L1210 Leukemia (intraperitoneal) in B6D2F1 (BDF1) mice
Settings: endpoint: mean survival time, higher = longer survival
Method in brief: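 Transplanted-tumor mice were given test agent; controls received vehicle only. Survival readings from the two groups were divided (treated over control).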

Measured: T/C

CN(C)C=Nc1c2c(C#N)cn(C3OC(CO)C(O)C3O)c2nc[n+]1[O-] (centres undefined)
inactive: dose: 12.5 mg/kg/injection, schedule: Q01DX005 (ip), vehicle: saline 97 % of control | dose: 12.5 mg/kg/injection, schedule: Q01DX009 (ip), vehicle: saline 104 % of control | dose: 25.0 mg/kg/injection, schedule: Q01DX005 (ip), vehicle: saline 102 % of control | dose: 25.0 mg/kg/injection, schedule: Q01DX009 (ip), vehicle: saline 104 % of control | dose: 50.0 mg/kg/injection, schedule: Q01DX005 (ip), vehicle: saline 105 % of control | dose: 50.0 mg/kg/injection, schedule: Q01DX009 (ip), vehicle: saline 109 % of control

O=c1[nH]c2cnccc2c(=O)n1O
inactive: dose: 100.0 mg/kg/injection, schedule: Q01DX009 (ip), vehicle: saline with Tween-80 102 % of control | dose: 200.0 mg/kg/injection, schedule: Q01DX009 (ip), vehicle: saline with Tween-80 93 % of control | dose: 400.0 mg/kg/injection, schedule: Q01DX009 (ip), vehicle: saline with Tween-80 104 % of control
